From the supplement of paper PMC12463676, “Small-molecule dissolution of stress granules by redox modulation benefits ALS models” (Nature Chemical Biology, 2025)

Legend:
lipoamide = compound: NC(=O)CCCCC1CCSS1 [lipoamide]; assay: thermal stability z-score vs DMSO; higher = more thermally stabilized by treatment; conditions: HeLa, lipoamide concentration 100 µM
Experimental: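 Cellular thermal proteome profiling in HeLa cells. Cells were treated with 100 µM lipoamide for 1 h, with or without 1 mM arsenate for a further 1 h, then heated to ten temperatures (37-66.3 °C), and soluble protein was quantified by TMT mass spectrometry relative to 0.1% DMSO controls. The thermal stability score (sum of log2 fold changes minus the abundance score) was transformed to a z-score; mean of n = 3 experiments.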

potassium arsenate = compound: O=[As]([O-])(O)O.[K+] [potassium arsenate]; assay: as above; conditions: HeLa; arsenate concentration 1 mM
Experimental: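 Cellular thermal proteome profiling in HeLa cells treated with 1 mM arsenate for 1 h (DMSO pretreatment), heated to ten temperatures (37-66.3 °C). Soluble protein was quantified by TMT mass spectrometry relative to DMSO controls; the thermal stability score was transformed to a z-score; mean of n = 3 experiments.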

[1] = arsenate co-treatment: 1 mM arsenate 1 h
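Further: each temperature applied for 3 min, abundance score taken as mean log2 fold change at the two lowest temperatures, z-score obtained by mean subtraction and division by SD.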

Sequence of UniProt Q96S82 (Q96S82 whole entry): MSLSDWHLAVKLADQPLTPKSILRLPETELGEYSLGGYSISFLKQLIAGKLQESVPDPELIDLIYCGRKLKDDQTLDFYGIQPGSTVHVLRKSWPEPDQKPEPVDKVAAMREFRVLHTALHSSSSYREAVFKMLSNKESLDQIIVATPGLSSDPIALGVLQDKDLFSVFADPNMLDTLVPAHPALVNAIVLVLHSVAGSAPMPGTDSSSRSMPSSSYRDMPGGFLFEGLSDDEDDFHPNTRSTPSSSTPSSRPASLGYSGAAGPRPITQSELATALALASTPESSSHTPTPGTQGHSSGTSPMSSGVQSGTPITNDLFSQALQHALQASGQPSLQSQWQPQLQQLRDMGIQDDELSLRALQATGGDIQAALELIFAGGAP
Sequence of UniProt P61960 (P61960 whole entry): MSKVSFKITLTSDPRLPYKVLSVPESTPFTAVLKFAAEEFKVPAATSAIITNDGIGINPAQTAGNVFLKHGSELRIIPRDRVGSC
Sequence of UniProt Q6BDS2 (Q6BDS2 whole entry): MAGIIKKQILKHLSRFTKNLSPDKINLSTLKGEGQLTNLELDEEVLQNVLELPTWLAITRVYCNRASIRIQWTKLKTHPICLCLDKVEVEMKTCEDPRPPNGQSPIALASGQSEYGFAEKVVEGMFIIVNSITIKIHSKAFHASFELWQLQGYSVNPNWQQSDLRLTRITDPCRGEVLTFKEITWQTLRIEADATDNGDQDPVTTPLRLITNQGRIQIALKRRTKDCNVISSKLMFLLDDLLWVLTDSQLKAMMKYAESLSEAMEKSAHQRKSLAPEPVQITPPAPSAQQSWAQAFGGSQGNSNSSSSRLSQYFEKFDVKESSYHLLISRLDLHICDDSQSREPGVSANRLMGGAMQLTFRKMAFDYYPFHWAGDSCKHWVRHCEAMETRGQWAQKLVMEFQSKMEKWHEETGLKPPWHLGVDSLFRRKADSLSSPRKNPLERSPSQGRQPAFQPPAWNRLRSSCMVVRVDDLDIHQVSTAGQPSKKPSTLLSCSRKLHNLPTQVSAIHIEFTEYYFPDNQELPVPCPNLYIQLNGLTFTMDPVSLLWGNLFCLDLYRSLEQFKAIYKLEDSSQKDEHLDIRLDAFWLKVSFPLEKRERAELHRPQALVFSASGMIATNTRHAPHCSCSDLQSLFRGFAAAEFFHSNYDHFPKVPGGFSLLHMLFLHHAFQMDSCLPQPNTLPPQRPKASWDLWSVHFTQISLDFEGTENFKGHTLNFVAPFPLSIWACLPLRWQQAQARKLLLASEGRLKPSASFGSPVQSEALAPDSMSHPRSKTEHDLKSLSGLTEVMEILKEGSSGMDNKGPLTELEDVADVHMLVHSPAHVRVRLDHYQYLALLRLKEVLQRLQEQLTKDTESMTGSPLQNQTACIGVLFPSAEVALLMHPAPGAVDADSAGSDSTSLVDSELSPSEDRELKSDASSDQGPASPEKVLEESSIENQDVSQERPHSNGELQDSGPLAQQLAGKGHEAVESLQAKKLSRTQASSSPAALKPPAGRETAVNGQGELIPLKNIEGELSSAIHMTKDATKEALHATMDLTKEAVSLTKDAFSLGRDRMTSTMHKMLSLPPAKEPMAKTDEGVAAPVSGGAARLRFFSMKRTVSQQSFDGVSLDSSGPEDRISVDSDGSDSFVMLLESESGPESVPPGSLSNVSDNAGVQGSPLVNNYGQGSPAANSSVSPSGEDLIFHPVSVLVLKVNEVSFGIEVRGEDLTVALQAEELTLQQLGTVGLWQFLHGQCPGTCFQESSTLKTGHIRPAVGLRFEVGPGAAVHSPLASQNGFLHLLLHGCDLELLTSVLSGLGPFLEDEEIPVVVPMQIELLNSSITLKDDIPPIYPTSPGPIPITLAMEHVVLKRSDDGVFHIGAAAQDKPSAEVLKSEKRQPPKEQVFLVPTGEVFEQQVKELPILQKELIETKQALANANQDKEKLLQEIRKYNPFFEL
Sequence of UniProt Q9NVA1 (Q9NVA1 whole entry): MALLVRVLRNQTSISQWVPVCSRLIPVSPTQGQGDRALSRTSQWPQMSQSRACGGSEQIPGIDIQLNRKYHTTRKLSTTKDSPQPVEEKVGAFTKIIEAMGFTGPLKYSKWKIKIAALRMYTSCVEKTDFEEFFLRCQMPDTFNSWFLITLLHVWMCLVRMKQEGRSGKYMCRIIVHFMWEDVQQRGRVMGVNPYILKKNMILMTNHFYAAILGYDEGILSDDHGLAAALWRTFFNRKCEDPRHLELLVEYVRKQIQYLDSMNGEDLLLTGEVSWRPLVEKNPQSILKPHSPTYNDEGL
Sequence of UniProt Q9H1C4 (Q9H1C4 whole entry): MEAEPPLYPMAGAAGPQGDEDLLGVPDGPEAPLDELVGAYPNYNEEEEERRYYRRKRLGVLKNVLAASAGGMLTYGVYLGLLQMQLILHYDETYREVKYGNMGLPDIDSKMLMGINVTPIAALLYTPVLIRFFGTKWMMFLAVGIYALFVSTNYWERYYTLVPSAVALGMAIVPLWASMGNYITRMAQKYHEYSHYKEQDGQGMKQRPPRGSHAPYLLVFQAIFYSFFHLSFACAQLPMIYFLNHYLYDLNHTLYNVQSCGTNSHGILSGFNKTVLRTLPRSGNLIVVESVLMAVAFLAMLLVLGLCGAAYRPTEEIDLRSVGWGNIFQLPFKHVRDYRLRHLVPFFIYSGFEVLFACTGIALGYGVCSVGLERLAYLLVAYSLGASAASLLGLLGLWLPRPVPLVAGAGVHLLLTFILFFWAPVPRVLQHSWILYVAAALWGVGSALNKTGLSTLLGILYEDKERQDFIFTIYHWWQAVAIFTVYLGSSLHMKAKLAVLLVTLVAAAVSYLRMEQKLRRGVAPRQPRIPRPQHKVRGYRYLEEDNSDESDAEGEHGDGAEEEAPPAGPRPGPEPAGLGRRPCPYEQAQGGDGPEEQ
Sequence of UniProt Q6ZT12 (Q6ZT12 whole entry): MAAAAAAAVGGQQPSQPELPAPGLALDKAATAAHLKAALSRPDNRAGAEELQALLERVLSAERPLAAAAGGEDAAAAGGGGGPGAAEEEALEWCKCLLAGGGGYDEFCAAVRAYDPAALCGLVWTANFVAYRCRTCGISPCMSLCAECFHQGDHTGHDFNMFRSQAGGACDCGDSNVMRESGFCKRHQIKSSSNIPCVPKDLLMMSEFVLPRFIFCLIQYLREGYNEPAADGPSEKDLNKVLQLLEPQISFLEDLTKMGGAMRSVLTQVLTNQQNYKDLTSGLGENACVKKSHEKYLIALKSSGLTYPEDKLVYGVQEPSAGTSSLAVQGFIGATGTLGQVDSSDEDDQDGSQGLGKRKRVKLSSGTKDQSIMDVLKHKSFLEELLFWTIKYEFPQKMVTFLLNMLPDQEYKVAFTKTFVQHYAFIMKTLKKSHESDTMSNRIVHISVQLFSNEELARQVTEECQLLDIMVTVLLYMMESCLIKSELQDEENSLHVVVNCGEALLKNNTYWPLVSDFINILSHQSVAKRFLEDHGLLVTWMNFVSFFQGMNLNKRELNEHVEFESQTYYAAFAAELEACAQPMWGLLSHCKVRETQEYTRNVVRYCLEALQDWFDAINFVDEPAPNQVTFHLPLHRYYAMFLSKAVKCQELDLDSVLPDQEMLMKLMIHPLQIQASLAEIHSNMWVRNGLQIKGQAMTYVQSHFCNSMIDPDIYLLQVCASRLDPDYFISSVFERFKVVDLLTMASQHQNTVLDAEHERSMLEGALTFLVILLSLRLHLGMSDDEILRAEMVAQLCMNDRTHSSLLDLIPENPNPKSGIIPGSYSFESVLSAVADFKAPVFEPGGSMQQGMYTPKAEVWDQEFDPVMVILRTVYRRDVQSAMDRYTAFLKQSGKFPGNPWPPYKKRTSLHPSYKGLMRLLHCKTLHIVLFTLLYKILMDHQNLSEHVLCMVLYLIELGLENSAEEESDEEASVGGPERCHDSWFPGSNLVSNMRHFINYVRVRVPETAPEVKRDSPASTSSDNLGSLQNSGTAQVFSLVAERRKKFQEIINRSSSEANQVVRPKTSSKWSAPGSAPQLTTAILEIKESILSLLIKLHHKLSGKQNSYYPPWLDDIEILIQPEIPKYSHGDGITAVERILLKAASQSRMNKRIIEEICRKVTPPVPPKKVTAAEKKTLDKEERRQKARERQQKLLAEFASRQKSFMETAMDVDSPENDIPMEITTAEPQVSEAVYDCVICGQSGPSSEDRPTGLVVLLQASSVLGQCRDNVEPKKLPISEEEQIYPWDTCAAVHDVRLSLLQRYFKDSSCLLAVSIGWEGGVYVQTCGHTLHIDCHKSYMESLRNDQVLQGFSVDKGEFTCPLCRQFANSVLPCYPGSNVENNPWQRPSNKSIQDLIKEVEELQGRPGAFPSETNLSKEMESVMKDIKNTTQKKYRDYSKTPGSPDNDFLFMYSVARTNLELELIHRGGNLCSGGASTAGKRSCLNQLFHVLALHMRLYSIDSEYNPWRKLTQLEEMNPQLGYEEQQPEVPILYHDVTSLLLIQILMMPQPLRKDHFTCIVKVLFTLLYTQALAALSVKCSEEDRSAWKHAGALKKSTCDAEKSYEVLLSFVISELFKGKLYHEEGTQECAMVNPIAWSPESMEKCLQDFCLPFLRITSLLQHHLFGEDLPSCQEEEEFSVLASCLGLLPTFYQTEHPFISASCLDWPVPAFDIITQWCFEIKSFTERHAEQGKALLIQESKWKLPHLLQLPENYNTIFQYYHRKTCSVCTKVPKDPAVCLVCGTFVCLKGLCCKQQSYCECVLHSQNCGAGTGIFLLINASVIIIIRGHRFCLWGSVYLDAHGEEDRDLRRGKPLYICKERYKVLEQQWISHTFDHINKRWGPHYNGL
Sequence of UniProt O00124 (O00124 whole entry): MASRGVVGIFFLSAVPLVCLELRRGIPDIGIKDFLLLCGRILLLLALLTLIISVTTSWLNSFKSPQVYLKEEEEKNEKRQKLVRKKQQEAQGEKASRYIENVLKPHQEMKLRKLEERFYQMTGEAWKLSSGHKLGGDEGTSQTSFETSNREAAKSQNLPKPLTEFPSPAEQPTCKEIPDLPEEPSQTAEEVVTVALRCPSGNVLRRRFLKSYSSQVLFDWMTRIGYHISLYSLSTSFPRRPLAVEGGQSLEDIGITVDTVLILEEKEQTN
Sequence of UniProt Q9UDW1 (Q9UDW1 whole entry): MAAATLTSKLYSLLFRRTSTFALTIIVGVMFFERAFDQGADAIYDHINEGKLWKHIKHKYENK

Target | thermal stability z-score (lipoamide; [1]) | thermal stability z-score (lipoamide; arsenate co-treatment: none) | thermal stability z-score (potassium arsenate)
UBE4B (UniProt O95155) | -0.444 | -0.412 | 0.599
UBFD1 (UniProt O14562) | -0.0131 | -0.0151 | 0.066
UBIAD1 (UniProt Q9Y5Z9) | -0.487 | -0.317 | -0.362
UBL4A (UniProt P11441) | 0.683 | 1.2 | 1.11
UBL5 (UniProt Q9BZL1) | -0.115 | -0.0438 | -0.107
UBL7 (UniProt Q96S82) | 0.396 | 0.433 | 0.168
UBLCP1 (UniProt Q8WVY7) | 0.309 | -0.101 | 0.8
UBQLN1 (UniProt Q9UMX0) | 2.04 | 2.04 | 0.778
UBQLN2 (UniProt Q9UHD9) | 1.26 | 0.932 | -0.0552
UBQLN4 (UniProt Q9NRR5) | 1.81 | 1.78 | 0.334
UBR1 (UniProt Q8IWV7) | -0.198 | 0.193 | -0.191
UBR2 (UniProt Q8IWV8) | 0.13 | 0.182 | 0.444
UBR3 (UniProt Q6ZT12) | 0.0839 | 0.139 | -0.007
UBR4 (UniProt Q5T4S7) | -0.162 | -0.16 | 0.242
UBR5 (UniProt O95071) | -0.165 | -0.0498 | 1.13
UBR7 (UniProt Q8N806) | -0.392 | -0.575 | 0.457
UBTF (UniProt P17480) | 0.142 | 0.184 | 0.532
UBXN1 (UniProt Q04323) | 0.155 | 0.25 | -0.0349
UBXN4 (UniProt Q92575) | -0.125 | -0.121 | -0.265
UBXN6 (UniProt Q9BZV1) | -0.186 | -0.134 | -0.12
UBXN7 (UniProt O94888) | -0.462 | 0.55 | -0.679
UBXN8 (UniProt O00124) | -1.43 | -0.528 | -0.0404
UCHL3 (UniProt P15374) | 0.844 | 0.126 | -0.0572
UCHL5 (UniProt Q9Y5K5) | 0.0058 | 0.138 | 0.855

Target | thermal stability z-score (lipoamide; [1]) | thermal stability z-score (lipoamide; arsenate co-treatment: none) | thermal stability z-score (potassium arsenate)
UCK1 (UniProt Q9HA47) | -0.206 | -0.165 | 0.121
UCK2 (UniProt Q9BZX2) | -0.0152 | 0.141 | 0.093
UCKL1 (UniProt Q9NWZ5) | -0.158 | -0.483 | 0.0426
UEVLD (UniProt Q8IX04) | 0.183 | 0.107 | 0.0354
UFC1 (UniProt Q9Y3C8) | 0.984 | 0.773 | 0.281
UFD1L (UniProt Q92890) | -0.427 | -0.0782 | 0.36
UFL1 (UniProt O94874) | -0.791 | -0.41 | 0.145
UFM1 (UniProt P61960) | 0.193 | 0.534 | 0.181
UFSP2 (UniProt Q9NUQ7) | -1.19 | -0.381 | 0.0966
UGDH (UniProt O60701) | -0.0997 | 0.267 | 1.03
UGGT1 (UniProt Q9NYU2) | -3.22 | -2.7 | 0.639
UGGT2 (UniProt Q9NYU1) | -1.81 | -1.31 | 0.289
UGP2 (UniProt Q16851) | 0.388 | -0.0879 | 0.872
UGT8 (UniProt Q16880) | 0.0311 | -0.0518 | 0.235
UHRF1 (UniProt Q96T88) | 0.0776 | 0.0619 | -0.766
UHRF1BP1 (UniProt Q6BDS2) | -0.235 | 0.193 | 0.149
UHRF1BP1L (UniProt A0JNW5) | -0.0289 | -0.329 | -0.53
UIMC1 (UniProt Q96RL1) | -0.168 | 0.424 | 0.872
ULK3 (UniProt Q6PHR2) | -0.27 | -0.197 | -0.285
UMPS (UniProt P11172) | 0.111 | 0.297 | -1.02
UNC13B (UniProt O14795) | -0.0346 | -0.119 | -0.156
UNC13D (UniProt Q70J99) | -0.15 | -0.154 | -0.283
UNC45A (UniProt Q9H3U1) | -0.649 | -0.167 | 0.158
UNC93B1 (UniProt Q9H1C4) | 0.172 | -0.000713 | 0.487

Target | thermal stability z-score (lipoamide; [1]) | thermal stability z-score (lipoamide; arsenate co-treatment: none) | thermal stability z-score (potassium arsenate)
UNC119 (UniProt Q13432) | 0.0331 | 0.106 | -0.0734
UNC119B (UniProt A6NIH7) | 1.07 | 0.468 | -0.0898
UNG (UniProt P13051) | -0.772 | -1.08 | -0.665
UNK (UniProt Q9C0B0) | 0.117 | 0.0195 | -0.364
UPF1 (UniProt Q92900) | 0.222 | -0.246 | 0.172
UPF2 (UniProt Q9HAU5) | -0.16 | 0.104 | 0.0278
UPF3B (UniProt Q9BZI7) | -0.0795 | 0.00475 | 0.667
UPP1 (UniProt Q16831) | -0.122 | 0.244 | -0.16
UPRT (UniProt Q96BW1) | -0.0247 | -0.292 | 0.289
UQCC1 (UniProt Q9NVA1) | 0.493 | 0.855 | 1.5
UQCC2 (UniProt Q9BRT2) | 0.0305 | -0.239 | 0.139
UQCR10 (UniProt Q9UDW1) | -0.399 | 0.0606 | 0.553
UQCRB (UniProt P14927) | 0.896 | 0.847 | 0.208
UQCRC1 (UniProt P31930) | 1.43 | 0.508 | -1.38
UQCRC2 (UniProt P22695) | 0.268 | -0.0661 | -2.47
UQCRFS1 (UniProt P47985) | 0.00262 | 0.279 | -2.17
UQCRH (UniProt P07919) | 1.35 | 1.45 | 0.58
UQCRQ (UniProt O14949) | 0.971 | 0.797 | 1.28
URGCP (UniProt Q8TCY9) | 0.532 | 0.322 | 1.12
URI1 (UniProt O94763) | -0.325 | -0.193 | 0.52
UROD (UniProt P06132) | 0.0739 | 0.0184 | -0.0518
UROS (UniProt P10746) | -0.306 | -0.445 | -2.43
USE1 (UniProt Q9NZ43) | 0.872 | 0.37 | 1.13
